Tests used:
[1] = test system: A549; assay: Cytotoxicity against human A549 cells after 24 hrs by WST8 assay; format: functional, cell-based; settings: A549, 24 h
[2] = test system: A549; assay: Antitumor activity against human A549 cells xenografted athymic BALB/c mouse assessed as reduction in tumor volume at 100 mg/kg/day, po for 28 days; format: functional; design: scale not given: the % may be the effect or the level left
[3] = test system: HeLa; assay: Cytotoxicity against human HeLa cells after 24 hrs by WST8 assay; format: functional, cell-based

COc1cc(C)c2cc(O[C@@H]3O[C@H](CO)[C@@H](O)[C@H](O)[C@H]3O)c(C)cc2c1C(C)C
IC50 [1]: 194 µM
Activity [2]: 50%
IC50 [3]: 231 µM

COc1cc(C)c2cc(OCCO[C@H]3O[C@H](CO)[C@@H](O)[C@H](O)[C@H]3O)c(C)cc2c1C(C)C
IC50 [1]: 129 µM
Activity [2]: 25%
IC50 [3]: 161 µM

COc1cc(C)c2cc(O)c(C)cc2c1C(C)C [CADALENE]
IC50 [1]: 34.9 µM
IC50 [3]: 28.3 µM

Reference: ChEMBL document CHEMBL1140521, “Enhanced efficacy of 7-hydroxy-3-methoxycadalene via glycosylation in in vivo xenograft study” (Bioorg Med Chem Lett, 2007)
